Results: patent US20110294732A1, “ERYTHROPOLETIN COMPLEMENTATION OR REPLACEMENT” (Universite De Strasbourg, priority 2007, published 2011)
Several values for one entry are separate records, joined by “and”; a condition that tells them apart may be missing. Identical values can stand only once. Entries after “also recorded” stand apart in the source; their conditions may differ.

How the values were obtained:
[1] = target: murine hemoglobin (Mus musculus, UniProt P02088); assay: In vitro P50 shift of hemoglobin mixed with ITPP (HEMOX analyzer); format: biochemical
Chain of murine hemoglobin (P02088 2-147 limits assumed): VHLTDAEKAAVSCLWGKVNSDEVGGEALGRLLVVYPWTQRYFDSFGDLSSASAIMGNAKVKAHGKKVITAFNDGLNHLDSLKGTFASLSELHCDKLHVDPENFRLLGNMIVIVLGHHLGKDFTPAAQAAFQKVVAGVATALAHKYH
Chain of murine hemoglobin (P01942 2-142 partner limits assumed): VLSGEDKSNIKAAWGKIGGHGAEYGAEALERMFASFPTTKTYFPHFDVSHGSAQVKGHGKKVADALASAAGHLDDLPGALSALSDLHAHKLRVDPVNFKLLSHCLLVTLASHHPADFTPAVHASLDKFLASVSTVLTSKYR
Description: Myo-ITPP was tested for its ability to induce a decrease of the O2-affinity of hemoglobin measured as a shift of the P50 value (P50 at 50% saturation of hemoglobin). The observed shifts to higher PO2 were up to 250% in murine hemoglobin and up to 40% in murine whole blood. This finding was particularly striking because the shifts occurred concomitantly in vivo with a decrease in the number of RBCs and hematocrit; such hemodilution is recognized as a positive indicator in many circumstances because it is diagnostic for downregulation of RBC production where the body's oxygen needs are being met efficiently. Additional support came from enhancement of the effort capacity of test animals by up to 100% following ITPP administration, which confirmed that oxygen was being delivered efficiently to the working muscle, and only to that muscle.
(§1) For the in vitro experiments, ITPP was dissolved in deionized water, pH was adjusted to pH 7 and, for incubation with whole blood, the osmolarity of the ITPP solutions was adjusted with glucose to 270-297 mOsM. Mixtures of hemoglobin and ITPP were measured with a HEMOX analyzer (PD Marketing, London) immediately after mixing. Red blood cells were incubated with ITPP for 1 hour at 37° C. Following incubation, the cells were washed 3 times with Bis-Tris-buffer (pH=7.0) and then used for P50 measurement.

[2] = test system: whole blood; assay: In vitro P50 of whole blood after incubation with effector, pig; format: cell-based; settings: 60 mM
Description: as §1
ITPP was tested along with a cholesteroyl derivative (here designated as kf96) (both at 60 mM) as effectors for P50 shifts in whole blood of three species: human, mouse and pig. As usual, pHs for the compound-solutions were adjusted to ca. 7.0, osmolarities for both solutions were determined (325-373 mOsM) prior to treatment with the effectors, and whole blood volumes at 1:1 ratios were incubated.

[3] = test system: circulating RBC; assay: P50 shift of circulating RBC after oral administration in drinking water; format: in vivo, C57BL/6 mice
Description: In experiments conducted in vivo in which ITPP was administered orally, ITPP was dissolved in drinking (not deionized) water at a 20 g/L-concentration (=27 mM, pH 7.0) and offered for drinking ad libitum. A significant shift of the P50 value of circulating RBCs was observed.
(§2) Twelve C57BL/6 mice drank ITPP over 4 days (about 25 ml/24 hrs). Seven Control mice drank either pure water (three mice), or a solution of IHP (inositol hexaphosphate without the internal pyrophosphate rings) at the same concentration and pH as ITPP (4 mice). […] Blood was collected from the tail vein of the 12 C57BL/6 mice on day 0 (before treatment started), 1, 2, 4, 6, 7, 8, 10, 11 and 12, in order to measure P50 values. […] Oral application of ITPP caused significant right shifts of P50 (up to 31%) in mice.
The 12 mice were observed over 12 days, the P50 values of their circulating RBC were measured almost daily. […] It appears that all mice ingesting the aqueous solution of ITPP present a shift of the P50 value of their circulating RBC, albeit with individual differences. FIG. 8 illustrates the individual differences in the P50 shift induced in the mice by ingestion of the aqueous solution of ITPP.

[4] = Blood counts of mice after oral ingestion; format: in vivo
Source text: Blood from mice that ingested ITPP or IHP in water (for 4 days) or water only was collected on day 0, 7 and 11, in order to assess any differences in the blood count (and the amount of erythropoietin in the sera) of treated and control mice. […] The amount of blood from the other mice was not sufficient to determine the blood count.

[5] = Tolerability of oral treatment in mice; format: in vivo, C57BL/6 mice; settings: drinking over 4 days
Description: as §2

[6] = test system: porcine RBCs; assay: P50 shift of porcine RBCs after intravenous injection; format: in vivo, piglet; settings: intravenous 1 g ITPP/kg body weight
Description: An in vivo experiment was performed on one 8 week-old normal piglet (body weight: 17 kg). The piglet was anesthesized with 5% Isoflurane, 0.7 L/min N2O and 2.0 L/min O2 for 20-30 minutes, when ITPP was injected, or blood was taken from the ear vein, respectively. The compound injected intravenous at a concentration of 27 g ITPP/100 ml water (volume injected: 63 ml, pH 6.5, containing 17 g ITPP=1 g/l kg body weight) was not harmful to the animal, when injected into the piglet's ear vein over at least 10 minutes.
Intravenous injection of 1 g ITPP/kg body weight caused a significant right shift of the P50-value (up to 20%) in porcine RBCs. An almost saturated ITPP solution, pH 6.7, was injected intravenously into two piglets (both of ca. 18 kg body weight) (27 g ITPP/100 ml=1.5 g/kg body weight) over 20 minutes.

[7] = Blood counts of piglets after intravenous injection; format: in vivo; settings: iv 1 g/kg
Source text: Blood from 2 piglets that received ITPP (1 g/kg body weight) was collected before injection, 2 hrs after, and daily over a period of 14 days after injection, in order to assess any differences in the blood counts of treated and non-treated piglets.
Blood was taken from the heart of the dead animals for determination of blood counts as well as the amount of sodium, potassium and calcium in the sera. All numbers of blood cells (hematocrit, white blood cells etc.) were halved. The amount of potassium and calcium was normal, while sodium was doubled (before injection: 120-140 mmol/L; after injection: 245 mmol/L). Apparently, the large amount of sodium in that form of ITPP (6 Na^+/molecule) caused the death of the animals. It appears that up to 1 g ITPP per kg body weight can be injected intravenously, (if injected slowly) without harmful effects for the animals. […] A second piglet was also injected with ITPP at the 1 g/kg concentration, after 2 piglets had died after iv injection of 1.2 g ITPP (or even more) per kg body weight. […] Starting with day 3 after injection of the allosteric effector, the number of reticulocytes increased by about 3% for a period of 14 days.

[8] = Hematocrit after IP injection; format: in vivo; settings: 6 days after IP injection of 200 μl of a 60 mM solution; 40% on day 0
Description: It appears, based upon the preliminary data reported, that an inverse relationship exists between the number of RBCs and shift of their P50 value (see FIG. 1). The basal value of the RBC count is restored, once ΔP50 becomes 0%, 12 days after ingestion of ITPP. The hematocrit drops from 40% on day 0 (before ITPP administration) to 32%, 6 days after IP injection of 200 μl of a 60 mM ITPP solution.

SMILES: O=P1(O)OC2C3OP(=O)(O)OP(=O)(O)OC3C3OP(=O)(O)OP(=O)(O)OC3C2OP(=O)(O)O1 (stereo not shown) [ITPP, inositol-tripyrophosphate]
- shift of the P50 value to higher PO2 [1]: up to 250%
- P50 increase, % (ITPP) ([2]; pig whole blood): 40%
- P50 mm Hg effector ITPP ([2]; pig whole blood, control 32.2): 45.2 mm Hg
- right shift in the Hb-O2 dissociation curve, strongest shift ([2]; summary over human, pig and mouse whole blood): up to 40%
- time for P50 values to return to control values ([3]; ingestion stopped on day 4): ≤ 12 days
- time lag before the maximum P50 shift is attained ([3]; oral, 27 mM): about 48 hrs
- right shift of P50 ([3]; oral, 20 g/L (27 mM) in drinking water over 4 days): up to 31%
- P50 day 7, % ([3]; single mouse, oral in water for 4 days, day 7): 13% and 14% and 20% (2×) and 16% (2×) and 15% and 7% and 9%
- P50 day 10, % ([3]; single mouse, oral in water for 4 days, day 10): 10% (3×) and 6% and 12% and 16% and 8% and 11% and 9%
- time until the basal value of the RBC count is restored ([4]; after ingestion, once ΔP50 becomes 0%): 12 days
- number of RBCs ([4]; oral ingestion for 4 days): reduced significantly
- number of white blood cells versus other groups ([4]; oral ingestion for 4 days): no major differences
- RBC × 10^6/mm^3 (day 7) ([4]; single mouse, oral in water for 4 days, day 7, day 0 count 8.9-11.8): 6.60 10^6/mm^3 and 5.73 10^6/mm^3 and 6.35 10^6/mm^3 and 5.64 10^6/mm^3 and 5.45 10^6/mm^3 and 8.76 10^6/mm^3 and 7.70 10^6/mm^3 and 6.54 10^6/mm^3 (2×)
- tolerability of oral treatment [5]: No C57BL/6 mouse seemed to suffer
- right shift of the P50-value [6]: up to 20%
- number of other cells such as white blood cells [7]: No major differences
- reticulocytes, increasing numbers ([7]; 5-14 days after injection, day 14): up to 3.0%
- reticulocyte population after decrease ([7]; first 3 days (24 to 72 hrs) after injection, from 1.4% / 1.5%): 0.5%
- hematocrit and number of RBCs ([7]; first days after injection): slight decrease; also recorded: decrease in hematocrit was observed
- pathological changes of the blood counts ([7]; injected slowly): did not show any pathological changes
- increase of the number of reticulocytes ([7]; starting with day 3, for a period of 14 days): about 3%
- hematocrit [8]: 32%
